This is an account of results in the Kinase Knowledgebase extract (Sharma et al. 2016).

Structures are written as SMILES.

Some targets named below: PIK3CD (Human) (UniProt O00329); PIK3CA (human) (UniProt P42336); PIK3CG (human) (UniProt P48736).
Experiment in all cases: Enzyme Assay

Sequence of PIK3CD (Human) (O00329 whole entry, looked up): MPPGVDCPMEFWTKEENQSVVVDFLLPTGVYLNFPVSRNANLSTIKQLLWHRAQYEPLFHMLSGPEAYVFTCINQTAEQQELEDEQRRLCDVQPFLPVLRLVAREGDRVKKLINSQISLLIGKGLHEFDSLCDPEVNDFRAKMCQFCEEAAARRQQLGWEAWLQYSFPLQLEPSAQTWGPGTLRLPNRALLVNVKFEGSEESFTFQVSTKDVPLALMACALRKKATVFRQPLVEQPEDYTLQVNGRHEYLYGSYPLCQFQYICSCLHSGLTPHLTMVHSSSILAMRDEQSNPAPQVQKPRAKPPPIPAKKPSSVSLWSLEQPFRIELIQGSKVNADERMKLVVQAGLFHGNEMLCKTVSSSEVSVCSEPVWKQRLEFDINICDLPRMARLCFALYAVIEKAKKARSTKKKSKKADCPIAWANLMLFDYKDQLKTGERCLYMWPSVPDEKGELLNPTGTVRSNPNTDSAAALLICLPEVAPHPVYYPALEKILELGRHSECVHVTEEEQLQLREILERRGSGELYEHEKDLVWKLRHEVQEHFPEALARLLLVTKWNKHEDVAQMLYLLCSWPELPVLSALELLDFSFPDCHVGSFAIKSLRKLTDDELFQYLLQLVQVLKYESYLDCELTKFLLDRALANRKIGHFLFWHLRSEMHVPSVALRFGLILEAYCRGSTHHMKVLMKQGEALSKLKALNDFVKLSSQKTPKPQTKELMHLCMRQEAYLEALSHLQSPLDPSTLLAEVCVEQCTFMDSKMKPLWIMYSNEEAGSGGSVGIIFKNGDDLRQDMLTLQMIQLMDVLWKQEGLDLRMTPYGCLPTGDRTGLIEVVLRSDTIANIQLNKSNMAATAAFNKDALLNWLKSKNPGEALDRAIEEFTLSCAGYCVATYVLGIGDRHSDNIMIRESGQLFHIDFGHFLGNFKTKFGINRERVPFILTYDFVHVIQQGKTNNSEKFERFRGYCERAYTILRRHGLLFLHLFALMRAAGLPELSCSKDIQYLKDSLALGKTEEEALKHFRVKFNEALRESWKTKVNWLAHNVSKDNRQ
Sequence of PIK3CA (human) (P42336 whole entry, looked up): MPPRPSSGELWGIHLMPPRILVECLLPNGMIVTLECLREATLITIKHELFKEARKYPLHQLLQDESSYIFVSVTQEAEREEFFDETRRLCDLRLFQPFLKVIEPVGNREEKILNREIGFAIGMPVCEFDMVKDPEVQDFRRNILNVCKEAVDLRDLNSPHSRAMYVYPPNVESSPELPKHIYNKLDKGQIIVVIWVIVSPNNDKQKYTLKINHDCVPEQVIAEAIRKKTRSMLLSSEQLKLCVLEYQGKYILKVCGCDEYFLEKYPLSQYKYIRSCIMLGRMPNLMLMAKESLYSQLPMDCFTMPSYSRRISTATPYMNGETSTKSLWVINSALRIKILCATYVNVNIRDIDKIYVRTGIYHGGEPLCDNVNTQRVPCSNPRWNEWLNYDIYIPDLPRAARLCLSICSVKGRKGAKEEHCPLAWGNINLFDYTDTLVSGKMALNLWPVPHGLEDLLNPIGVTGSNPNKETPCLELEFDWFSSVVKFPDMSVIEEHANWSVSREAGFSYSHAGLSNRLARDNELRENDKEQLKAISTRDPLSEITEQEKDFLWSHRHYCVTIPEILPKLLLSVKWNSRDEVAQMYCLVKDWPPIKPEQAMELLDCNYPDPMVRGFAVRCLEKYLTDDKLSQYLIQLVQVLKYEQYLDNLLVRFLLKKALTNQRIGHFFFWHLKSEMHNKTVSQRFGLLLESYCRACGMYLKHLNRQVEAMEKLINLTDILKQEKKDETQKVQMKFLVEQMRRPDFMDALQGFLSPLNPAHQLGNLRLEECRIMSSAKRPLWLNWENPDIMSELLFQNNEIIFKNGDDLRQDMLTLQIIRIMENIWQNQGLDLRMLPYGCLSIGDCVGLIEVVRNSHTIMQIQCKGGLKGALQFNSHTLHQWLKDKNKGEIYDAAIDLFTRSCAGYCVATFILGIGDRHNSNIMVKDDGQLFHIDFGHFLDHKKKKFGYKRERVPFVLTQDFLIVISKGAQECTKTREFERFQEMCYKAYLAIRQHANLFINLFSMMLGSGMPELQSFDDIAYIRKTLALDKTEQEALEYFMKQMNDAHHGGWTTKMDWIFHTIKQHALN
Sequence of PIK3CG (human) (P48736 whole entry, looked up): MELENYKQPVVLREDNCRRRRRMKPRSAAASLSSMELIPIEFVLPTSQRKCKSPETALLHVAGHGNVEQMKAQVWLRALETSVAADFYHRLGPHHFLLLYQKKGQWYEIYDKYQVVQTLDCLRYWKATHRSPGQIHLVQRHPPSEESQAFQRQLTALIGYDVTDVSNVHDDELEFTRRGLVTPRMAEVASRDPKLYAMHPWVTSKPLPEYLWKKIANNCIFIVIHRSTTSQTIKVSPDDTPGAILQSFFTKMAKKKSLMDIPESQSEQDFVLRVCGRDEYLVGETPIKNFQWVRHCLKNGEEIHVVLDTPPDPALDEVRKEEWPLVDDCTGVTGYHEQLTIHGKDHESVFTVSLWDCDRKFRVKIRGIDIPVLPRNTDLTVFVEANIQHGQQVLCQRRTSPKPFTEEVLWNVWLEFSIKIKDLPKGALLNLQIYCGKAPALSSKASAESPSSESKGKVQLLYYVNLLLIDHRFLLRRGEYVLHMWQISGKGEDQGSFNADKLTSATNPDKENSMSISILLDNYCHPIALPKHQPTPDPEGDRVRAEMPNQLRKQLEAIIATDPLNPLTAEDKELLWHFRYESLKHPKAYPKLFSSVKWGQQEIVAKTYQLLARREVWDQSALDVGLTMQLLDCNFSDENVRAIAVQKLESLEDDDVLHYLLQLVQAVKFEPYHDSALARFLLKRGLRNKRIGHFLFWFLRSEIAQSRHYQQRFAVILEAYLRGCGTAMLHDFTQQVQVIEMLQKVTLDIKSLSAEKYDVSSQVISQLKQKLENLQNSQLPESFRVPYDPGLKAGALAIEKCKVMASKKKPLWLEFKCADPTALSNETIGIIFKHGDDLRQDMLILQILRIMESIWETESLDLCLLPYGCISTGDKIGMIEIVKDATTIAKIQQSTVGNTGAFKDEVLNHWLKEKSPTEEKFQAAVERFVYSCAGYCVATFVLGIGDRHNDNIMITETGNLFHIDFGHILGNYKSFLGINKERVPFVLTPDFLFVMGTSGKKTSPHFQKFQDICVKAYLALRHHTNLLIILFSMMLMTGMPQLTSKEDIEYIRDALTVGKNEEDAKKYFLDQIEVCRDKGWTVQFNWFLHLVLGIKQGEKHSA

`COc1cc(-c2cccc3cc([C@H](C)Nc4ncnc5scnc45)n(-c4ccccc4)c(=O)c23)ccn1`: the IC50 against PIK3CD (Human) was < 100 nM; against PIK3CA (human), 100 to 1000 nM; against PIK3CG (human), < 100 nM.

For `C[C@H](Nc1nc(Cl)nc2scnc12)c1cc2cccc(-c3cnn(C)c3)c2c(=O)n1-c1ccccc1`, the IC50 was < 100 nM at PIK3CD (Human) and 100 to 1000 nM at PIK3CG (human).

As for `Cc1ccnc2cc(C(C)Nc3ncnc4scnc34)n(-c3ccccc3)c(=O)c12` (configuration not stated), the IC50 against PIK3CD (Human) was < 100 nM; on PIK3CA (human), > 10000 nM; against PIK3CG (human) it was < 100 nM.

Regarding `C[C@H](Nc1ncnc2scnc12)c1cc2cccc(-c3cnn(C)c3)c2c(=O)n1-c1cccc(F)c1`, the IC50 against PIK3CD (Human) and against PIK3CG (human) was < 100 nM each time.

With `C[C@H](Nc1ncnc2scnc12)c1cc2cccc(-c3ccoc3)c2c(=O)n1-c1ccccc1`, the figures for the IC50 at PIK3CD (Human), on PIK3CA (human) and against PIK3CG (human) were < 100 nM, 100 to 1000 nM and < 100 nM, respectively.

For the compound `COc1ncc(-c2cccc3cc([C@H](C)Nc4ncnc5scnc45)n(-c4ccccc4)c(=O)c23)cc1C(F)(F)F`, the IC50 on PIK3CD (Human) and on PIK3CG (human) was < 100 nM each time.

For `Cc1c(-c2cccc3cc([C@H](C)Nc4ncnc5scnc45)n(-c4ccccc4)c(=O)c23)cnn1C`, the IC50 at PIK3CD (Human) is < 100 nM; on PIK3CG (human), 100 to 1000 nM.

With `C[C@H](Nc1ncnc2scnc12)c1cc2cccc(-c3cnc(N)nc3)c2c(=O)n1-c1ccccc1`, the IC50 was < 100 nM on PIK3CD (Human), 100 to 1000 nM at PIK3CA (human) and < 100 nM at PIK3CG (human).

`COc1ccccc1-c1cccc2cc([C@H](C)Nc3ncnc4scnc34)n(-c3ccccc3)c(=O)c12`: the IC50 against PIK3CD (Human) was < 100 nM; against PIK3CG (human), 100 to 1000 nM.

`Cc1cncc(-c2cccc3cc([C@H](C)Nc4ncnc5scnc45)n(-c4ccccc4)c(=O)c23)c1`: the IC50 against PIK3CD (Human) was < 100 nM; on PIK3CA (human), 100 to 1000 nM; against PIK3CG (human), < 100 nM.

As to `C[C@H](Nc1ncnc2scnc12)c1cc2cccc(/C=C/c3ccccc3)c2c(=O)n1-c1ccccc1`, the IC50 against PIK3CD (Human) was 100 to 1000 nM; against PIK3CG (human), < 100 nM.

`CCCCc1cccc2cc([C@H](C)Nc3ncnc4scnc34)n(-c3ccccc3)c(=O)c12`: the IC50 on PIK3CD (Human) and on PIK3CG (human) was < 100 nM each time.

Turning to `C[C@H](Nc1ncnc2scnc12)c1cc2cccc(-c3cncnc3)c2c(=O)n1-c1ccccc1`, the IC50 on PIK3CD (Human) and at PIK3CG (human) was < 100 nM throughout.

As for `C[C@H](Nc1ncnc2scnc12)c1cc2cccc(-c3cn[nH]c3)c2c(=O)n1-c1ccccc1`, the IC50 at PIK3CD (Human) and against PIK3CG (human) was < 100 nM each time.

For `C[C@H](Nc1ncnc2scnc12)c1cc2cccc(-c3ccc(N)nc3)c2c(=O)n1-c1ccccc1`, the IC50 against PIK3CD (Human) was < 100 nM; against PIK3CA (human), 100 to 1000 nM; against PIK3CG (human) it was < 100 nM.

As for `COc1ncc(-c2cccc3cc([C@H](C)Nc4ncnc5scnc45)n(C4CC4)c(=O)c23)cn1`, the values for the IC50 against PIK3CD (Human) and on PIK3CG (human) were < 100 nM and 100 to 1000 nM, respectively.

As for `C[C@H](Nc1ncnc2scnc12)c1cc2cccc(-c3cnc4ccoc4c3)c2c(=O)n1-c1ccccc1`, the IC50 on PIK3CD (Human) is < 100 nM; on PIK3CA (human), 100 to 1000 nM; against PIK3CG (human), < 100 nM.

Take `Cc1nsc2cc(C(C)Nc3ncnc4scnc34)n(-c3ccccc3)c(=O)c12` (configuration not stated): the IC50 on PIK3CD (Human) was < 100 nM; against PIK3CA (human), > 10000 nM.

Regarding `Cc1nn(C)cc1-c1cccc2cc([C@H](C)Nc3ncnc4scnc34)n(-c3ccccc3)c(=O)c12`, the concentration for half-maximal inhibition (IC50) on PIK3CD (Human) is < 100 nM; against PIK3CA (human), 100 to 1000 nM; against PIK3CG (human), < 100 nM.

Turning to `COc1ccc(-c2cccc3cc([C@H](C)Nc4ncnc5scnc45)n(-c4ccccc4)c(=O)c23)cn1`, the IC50 at PIK3CD (Human) and against PIK3CG (human) was < 100 nM each time.

`Cc1ncc(-c2cccc3cc([C@H](C)Nc4ncnc5scnc45)n(C4CC4)c(=O)c23)cn1`: the IC50 against PIK3CD (Human) is < 100 nM; against PIK3CG (human), 100 to 1000 nM.

For `C[C@H](Nc1ncnc2scnc12)c1cc2cccc(-c3ccc(=O)n(C)c3)c2c(=O)n1-c1ccccc1`, the IC50 at PIK3CD (Human) was < 100 nM; at PIK3CA (human), 100 to 1000 nM; at PIK3CG (human), 100 to 1000 nM.

Consider `COc1ncc(-c2cccc3cc([C@H](C)Nc4ncnc5scnc45)n(-c4ccccc4)c(=O)c23)s1`, for which the IC50 against PIK3CD (Human) was < 100 nM; against PIK3CA (human), 100 to 1000 nM; against PIK3CG (human), < 100 nM.

For `C[C@H](Nc1ncnc2scnc12)c1cc2cccc(-c3cnc4c(c3)CCCO4)c2c(=O)n1-c1ccccc1`, the figures for the IC50 against PIK3CD (Human), at PIK3CA (human) and against PIK3CG (human) were < 100 nM, 100 to 1000 nM and < 100 nM, respectively.

In the case of `C[C@H](Nc1ncnc2scnc12)c1cc2cccc(-c3ccncc3)c2c(=O)n1-c1ccccc1`, the concentration for half-maximal inhibition (IC50) was < 100 nM against PIK3CD (Human), 100 to 1000 nM at PIK3CA (human) and < 100 nM on PIK3CG (human).

As to `Cc1cc(-c2cccc3cc([C@H](C)Nc4ncnc5scnc45)n(-c4ccccc4)c(=O)c23)ccn1`, the IC50 at PIK3CD (Human) is < 100 nM; against PIK3CA (human), 100 to 1000 nM; on PIK3CG (human) it was < 100 nM.

In the case of `CCn1cc(-c2cccc3cc([C@H](C)Nc4ncnc5scnc45)n(-c4ccccc4)c(=O)c23)cn1`, the IC50 at PIK3CD (Human) and on PIK3CG (human) was < 100 nM in each case.

In the case of `COc1ccc(-c2cccc3cc([C@H](C)Nc4ncnc5scnc45)n(-c4ccccc4)c(=O)c23)cc1`, the IC50 against PIK3CD (Human) and against PIK3CG (human) was < 100 nM in each case.

Take `C[C@H](Nc1ncnc2scnc12)c1cc2ccccc2c(=O)n1-c1ccccc1`: the IC50 on PIK3CD (Human) and against PIK3CG (human) was < 100 nM throughout.

On to `C[C@H](Nc1ncnc2scnc12)c1cc2cccc(-c3cccnc3)c2c(=O)n1-c1ccccc1`, for which the IC50 against PIK3CD (Human) and against PIK3CG (human) was < 100 nM throughout.

In the case of `Cc1cc(-c2cccc3cc([C@H](C)Nc4ncnc5scnc45)n(-c4ccccc4)c(=O)c23)cnc1C`, the IC50 at PIK3CD (Human) and against PIK3CG (human) was < 100 nM each time.

On to `COc1ncc(-c2cccc3cc([C@H](C)Nc4ncnc5scnc45)n(-c4ccccc4)c(=O)c23)cc1C`, for which the IC50 at PIK3CD (Human) and against PIK3CG (human) was < 100 nM each time.

Turning to `C[C@H](Nc1ncnc2scnc12)c1cc2cccc(-c3ccnc(C(F)(F)F)c3)c2c(=O)n1-c1ccccc1`, the results for the IC50 against PIK3CD (Human) and against PIK3CG (human) were < 100 nM and 100 to 1000 nM, respectively.

Take `COc1cnccc1-c1cccc2cc([C@H](C)Nc3ncnc4scnc34)n(-c3ccccc3)c(=O)c12`: the IC50 on PIK3CD (Human) and on PIK3CG (human) was 100 to 1000 nM each time.

With `Cc1ccc(-c2cccc3cc([C@H](C)Nc4ncnc5scnc45)n(-c4ccccc4)c(=O)c23)cn1`, the IC50 on PIK3CD (Human) and at PIK3CG (human) was < 100 nM throughout.

Turning to `Cc1cc(-c2cccc3cc([C@H](C)Nc4ncnc5scnc45)n(-c4ccccc4)c(=O)c23)cnc1F`, the IC50 at PIK3CD (Human) and at PIK3CG (human) was < 100 nM each time.

On to `CCCn1cc(-c2cccc3cc([C@H](C)Nc4ncnc5scnc45)n(-c4ccccc4)c(=O)c23)cn1`, for which the figures for the IC50 against PIK3CD (Human) and against PIK3CG (human) were < 100 nM and 100 to 1000 nM, respectively.

With `C[C@H](Nc1ncnc2scnc12)c1cc2cccc(-c3cnc(OCc4ccccc4)nc3)c2c(=O)n1-c1ccccc1`, the IC50 at PIK3CD (Human) was < 100 nM; against PIK3CG (human), 100 to 1000 nM.

`C[C@H](Nc1ncnc2scnc12)c1cc2cccc(-c3cnn(C)c3)c2c(=O)n1C` had an IC50 at PIK3CD (Human) of 100 to 1000 nM.

For the compound `C[C@H](Nc1ccnc2scnc12)c1cc2cccc(-c3cnn(C)c3)c2c(=O)n1-c1ccccc1`, the IC50 against PIK3CD (Human) and on PIK3CG (human) was < 100 nM each time.
